Key:
[1] = test system: human multiple myeloma-derived KMS-11 cells; test: Cell growth inhibition test with KMS-11 cells (WST-1); type: cell-based; conditions: 72 hours, read-out: 50% growth inhibition concentration (GI50)
Method: In a 96-well plate (Nunc), human multiple myeloma-derived KMS-11 cells were sown in an amount of 4000 cells/well, and pre-incubated in 10% FCS-containing RPMI 1640 (Nissui) (incubation medium) in a 5% carbon dioxide incubator at 37° C. for 24 hours. Next, a DMSO solution of a test compound controlled at 10 mmol/L was stepwise diluted with the incubation medium, and added to each well in a total amount of 100 μL/well, and further incubated in the 5% carbon dioxide incubator at 37° C. for 72 hours. After the incubation, WST-1-labeled mixture (Rosh Diagnostic) diluted 2-fold with the incubation medium was added thereto in an amount of 20 μL/well, and incubated in the 5% carbon dioxide incubator at 37° C. for 2 hours. Using a microplate spectrophotometer (Biorad's Model 550), the absorbance at 450 nm and 655 nm of each well was measured. The cell growth inhibition activity of the test compound was indicated by the 50% growth inhibition concentration (GI50) thereof, like in Test Example 2.

[2] = test system: human mammary cancer-derived KPL-4 cells; test: Cell growth inhibition test with KPL-4 cells (WST-1); type: cell-based; conditions: KPL4, 72 hours, read-out: 50% growth inhibition concentration (GI50)
In short: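 KPL-4 cells pre-incubated 24 h in 10% FCS DMEM, then exposed to serially diluted compound for 72 h at 37 °C, 5% CO2. WST-1 added for 1 h; A450 minus A655 read. GI50 relative to untreated cells.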

[3] = test system: human chronic myelocytic leukemia-derived K562 cells; test: Cell growth inhibition test with K562 cells (WST-1); type: cell-based; conditions: 72 hours, read-out: 50% growth inhibition concentration (GI50)
In short: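 K562 cells at 1500 cells/well in 10% FCS RPMI 1640, pre-incubated 5 h, then exposed to serially diluted compound for 72 h at 37° C, 5% CO2. Viability read by WST-1 after 2 h (absorbance 450/655 nm); GI50 reported.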

Erk2 = test: Western blotting of non-Hsp90 client protein in KMS-11 cells; type: cell-based, human; conditions: 10 μmol/L and 1.0 μmol/L, 24 hours, FIG. 1
Method: (§1) Human multiple myeloma-derived KMS-11 cells [In Vitro Cell. Dev. Biol., 25, 723 (1989)], which had been diluted with a 10% fetal calf serum-containing RPMI 1640 (incubation medium) to 100,000 cellImL, were put in a 6-well plastic plate for cell incubation (Nunc), in an amount of 3 mL/well. It is reported that the KMS-11 cells express a large quantity of FGFR3 (fibroblast growth factor receptor 3) as a result of translocation between the immunoglobulin gene in 14q32 and the FGFR3 gene in 4p16.3 [Blood 90, 4062 (1997)]. […]
(§2) To the thus-collected cells, added was a cooled cytolysis buffer (50 mmol/L HEPES NaOH, pH 7.4, 250 mmol/L sodium chloride, 1 mmol/L ethylenediamine-tetraacetic acid, 1% Nonidet P-40, 1 mmol/L dithiothreitol, 1 mmol/L phenylmethylsulfonyl fluoride, 5 μg/mL leupeptin), and kept at 4° C. for 30 minutes for cytolysis. […] The protein concentration in the resulting supernatant was measured, and samples were prepared so as to have the same protein amount for each lane, and these were subjected to SDS (sodium dodecylsulfate)-polyacrylamide gel electrophoresis for protein separation.
(§3) Thus separated, the protein sample was transferred onto a polyvinylidene difluoride membrane (Millipore). […] After further reaction with an ECL reagent (Amersham Biosciences), the protein bands were detected on an X-ray film. […]

[4] = test system: FGFR3 (fibroblast growth factor receptor 3); test: Deletion of protein encoded by immunoglobulin gene-translocated partner gene in KMS-11 cells (Western blotting); type: cell-based, human; conditions: 10 μmol/L and 1.0 μmol/L, 24 hours, FIG. 1
Method: as §1, §2, §3

| SMILES | GI50 [1] [µM] | GI50 [2] [µM] | GI50 [3] [µM] | protein amount of Erk2 (non-Hsp90 client protein) (Erk2) | deletion of FGFR3 encoded by the immunoglobulin gene-translocated partner gene [4] |
| --- | --- | --- | --- | --- | --- |
| CCc1c(O)cc(O)c(-c2ccccc2)c1CC(=O)OC [Compound 52, Methyl 2-ethyl-3,5-dihydroxy-6-phenylphenylacetate] | ≤ 50 | ≤ 50 | – | – | – |
| CCc1c(O)cc(O)c(-c2ccccc2)c1CCO [Compound 84, 6-Ethyl-5-(2-hydroxyethyl)-4-phenylbenzene-1,3-diol] | ≤ 50 | ≤ 50 | ≤ 50 | – | – |
| COCCc1c(C(C)=O)c(O)cc(O)c1-c1ccccc1 [Compound 92, 1-[2,4-Dihydroxy-6-(2-methoxyethyl)-5-phenylphenyl]ethanone] | ≤ 50 | ≤ 50 | ≤ 50 | – | – |
| COCCc1c(C(C)=O)c(O)cc(O)c1-c1cccc(OC)c1 [Compound 116, 1-[2,4-Dihydroxy-6-(2-methoxyethyl)-5-(3-methoxyphenyl)phenyl]ethanone] | ≤ 50 | ≤ 50 | ≤ 50 | – | – |
| CCc1c(O)cc(O)c(-c2cccc(OC)c2)c1CCOC [Compound 118, 6-Ethyl-5-(2-methoxyethyl)-4-(3-methoxyphenyl)benzene-1,3-diol] | ≤ 50 | ≤ 50 | ≤ 50 | – | – |
| COCCc1c(C(C)=O)c(O)cc(O)c1-c1cccc(C)c1 [Compound 122, 1-[2,4-Dihydroxy-6-(2-methoxyethyl)-5-(3-methylphenyl)phenyl]ethanone] | ≤ 50 | ≤ 50 | ≤ 50 | – | – |
| COCCc1c(C(C)=O)c(O)cc(O)c1-c1cccc(O)c1 [Compound 134, 1-[2,4-Dihydroxy-5-(3-hydroxyphenyl)-6-(2-methoxyethyl)phenyl]ethanone] | ≤ 50 | ≤ 50 | ≤ 50 | – | – |
| CCc1c(O)cc(O)c(-c2cccc(OC)c2)c1CCOCCOC [Compound 138, 6-Ethyl-5-[2-(2-methoxyethoxy)ethyl]-4-(3-methoxyphenyl)benzene-1,3-diol] | ≤ 50 | ≤ 50 | ≤ 50 | – | – |
| COCCOCCc1c(C(C)=O)c(O)cc(O)c1-c1cccc(C)c1 [Compound 139, 1-{2,4-dihydroxy-6-[2-(2-methoxyethoxy)ethyl]-5-(3-methylphenyl)phenyl}ethanone] | ≤ 50 | ≤ 50 | ≤ 50 | – | – |
| CCc1c(O)cc(O)c(-c2ccccc2)c1CCOCC(O)CO (stereo not drawn) [Compound 147, 5-[2-(2,3-Dihydroxypropoxy)ethyl]-6-ethyl-4-phenylbenzene-1,3-diol] | ≤ 50 | ≤ 50 | ≤ 50 | – | – |
| CCc1c(O)cc(O)c(-c2ccccc2)c1CCCOCC(=O)NC [Compound 159, 2-[3-(2-Ethyl-3,5-dihydroxy-6-phenylphenyl)propoxy]-N-methylacetamide] | ≤ 50 | ≤ 50 | ≤ 50 | – | – |
| CCc1c(O)cc(O)c(-c2cccc(O)c2)c1CCOCCOC [Compound 166, 6-Ethyl-4-(3-hydroxyphenyl)-5-[2-(2-methoxyethoxy)ethyl]benzene-1,3-diol] | ≤ 50 | ≤ 50 | ≤ 50 | – | – |
| CCc1c(O)cc(O)c(-c2cccc(O)c2)c1CCOCCO [Compound 174, 6-Ethyl-5-[2-(2-hydroxyethoxy)ethyl]-4-(3-hydroxyphenyl)benzene-1,3-diol] | ≤ 50 | ≤ 50 | ≤ 50 | – | – |
| CCc1c(O)cc(O)c(-c2ccccc2)c1CCc1ocnc1C(=O)O [Compound 209, 5-[2-(2-Ethyl-3,5-dihydroxy-6-phenylphenyl)ethyl]-1,3-oxazole-4-carboxylic acid] | ≤ 50 | – | ≤ 50 | no change | deletion of FGFR3 |
| CCc1c(O)cc(O)c(-c2ccccc2)c1CCc1ocnc1CO [Compound 210, 6-Ethyl-5-[2-(4-hydroxymethyl-1,3-oxazol-5-yl)ethyl]-4-phenylbenzene-1,3-diol] | ≤ 50 | – | ≤ 50 | – | – |
| CCc1c(O)cc(O)c(-c2ccccc2)c1CC1O[C@H](CO)[C@@H](CO)O1 [Compound 218, 5-{[(4R,5R)-4,5-bis(hydroxymethyl)-1,3-dioxolan-2-yl]methyl}-6-ethyl-4-phenylbenzene-1,3-diol] | ≤ 50 | – | ≤ 50 | no change | deletion of FGFR3 |
| CCc1c(O)cc(O)c(-c2cccc(C)c2)c1CC1O[C@@H](CO)[C@H](CO)O1 [Compound 229, 5-{[(4S,5S)-4,5-bis(hydroxymethyl)-1,3-dioxolan-2-yl]methyl}-6-ethyl-4-(3-methylphenyl)benzene-1,3-diol] | ≤ 50 | – | ≤ 50 | – | – |
| COC(=O)Cc1c(Br)c(O)cc(O)c1-c1ccco1 [Compound 238, Methyl 2-bromo-6-(furan-2-yl)-3,5-dihydroxyphenylacetate] | ≤ 50 | ≤ 50 | ≤ 50 | – | – |
| CCc1c(O)cc(O)c(-c2ccco2)c1CCOCCO [Compound 256, 6-Ethyl-4-(furan-2-yl)-5-[2-(2-hydroxyethoxy)ethyl]benzene-1,3-diol] | ≤ 50 | – | ≤ 50 | – | – |
| COC(=O)Cc1c(Br)c(O)cc(O)c1-c1ccc(CCC(C)=O)o1 [Compound 265, Methyl 2-bromo-3,5-dihydroxy-6-[5-(3-oxobutyl)furan-2-yl]phenylacetate] | ≤ 50 | ≤ 50 | ≤ 50 | – | – |
| CCc1c(O)cc(O)c(-c2cccs2)c1CCOCCO [Compound 275, 6-Ethyl-5-[2-(2-hydroxyethoxy)ethyl]-4-(2-thienyl)benzene-1,3-diol] | ≤ 50 | – | ≤ 50 | – | – |
| CCc1cc(-c2n[nH]c3cc(OC)ccc23)c(O)cc1O [Compound 276, 6-Ethyl-4-(6-methoxy-1H-indazol-3-yl)benzene-1,3-diol] | ≤ 50 | ≤ 50 | – | – | – |
| CCc1c(O)cc(O)c(-c2ccc(F)c(C)c2)c1CC1O[C@@H](CO)[C@H](CO)O1 [Compound 300, 5-{[(4S,5S)-4,5-Bis(hydroxymethyl)-1,3-dioxolan-2-yl]methyl}-6-ethyl-4-(4-fluoro-3-methylphenyl)benzene-1,3-diol] | ≤ 50 | – | ≤ 50 | – | – |
| CCc1c(O)cc(O)c(-c2ccccc2)c1Cc1nn(CCOC)c(=O)o1 [Compound 317, 5-[(2-Ethyl-3,5-dihydroxy-6-phenylphenyl)methyl]-3-(2-methoxyethyl)-3H-1,3,4-oxadiazol-2-one] | ≤ 50 | – | ≤ 50 | – | – |
